{
  "source": "paper PMC10086185",
  "about": "“Synthesis, radiolabeling, and evaluation of a (4-quinolinoyl)glycyl-2-cyanopyrrolidine analogue for fibroblast activation protein (FAP) PET imaging” (Frontiers in Bioengineering and Biotechnology, 2023)",
  "key": {"[1]": {"test_system": "A549-FAPI cells (human FAP-expressing A549)", "experiment": "Cellular uptake of [^18F]3 in A549-FAPI cells", "format": "cell-based", "experimental": "(§1) Briefly, all cells were divided into the following two groups: A: blocking group and B: vehicle group. All cells were cultured, grouped, and plated (approximately 2*10^6 cells per well) before use. Cells were treated with [^18F]3 (74 KBq) and incubated at 37°C under a 5% CO2 atmosphere. […] Incubated at 37°C for 1 h, the medium from each well was removed, and the cells were washed twice with 1 mL of PBS. The medium and the PBS from each well were combined and counted in a Gamma counter (PerkinElmer Wizard 2470) for radioactivity counts. The cells were then handled with 1 mL of 1 M NaOH, and the lysates were also counted in the Wizard 2470 gamma counter. The uptake ratios for each group were then calculated with this equation: %Dose = […](medium counts + PBS counts + cell lysate counts)."}, "[2]": {"test_system": "A549-FAPI xenograft tumors", "experiment": "Micro-PET/CT imaging, A549-FAPI xenograft tumors", "format": "in vivo, BALB/c nude mice", "experimental": "(§2) BALB/c nude mice used in this study were obtained from the Animal Center of Sichuan University. Tumor-bearing mouse models were established by the subcutaneous injection of 100 µL of PBS suspension containing approximately 1*10^6 tumor cells to the body side of the subjects. The tumor volume was monitored every day, and the tumor-bearing mice were ready for imaging once the tumor volume reached 0.5 mm^3 (tumor volume can be calculated by this equation: Volume = 0.5 * long tail * short tail *short tail). Micro-PET/CT imaging studies were performed on the IRIS Micro-PET/CT system (Inviscan SAS, France). Tumor-bearing mice were injected with approximately 11.2–14.8 MBq of [^18F]3 (200 µL) via the tail vein under anaesthetization by isoflurane. Static PET images were obtained at designated time points and were reconstructed with a 3D-OSEM algorithm using a Monte Carlo-based accurate detector model. Then, 170 sec-CT acquisition was conducted with 50 kV, 1 mA X-ray output for attenuation correction and anatomical orientation. ROIs (regions of interest) were drawn on the lung, kidney, liver, and tumor by OsiriX software. SUV (standardized uptake value) of the ROIs was directly obtained from OsiriX for each subject according to this formula: SUV = Voxal value (Bq/mL) * Body weight (kg)/(Decay corrected Dose (Bq) * 1,000 (g/kg)).\n(§3) BALB/c nude mice used in this study were obtained from the Animal Center of Sichuan university. Tumor-bearing mice model were established by the subcutaneous injection of 100 µL of PBS suspension containing approximately 1*10^6 tumor cells to the body side of the subjects. The tumor volume was monitored every day and the tumor-bearing mice were ready for imaging once the tumor volume reach 0.5 mm^3 (tumor volume can be calculated by this equation: Volume = 0.5 * long tail * short tail *short tail). Micro-PET/CT imaging studies were performed on the IRIS Micro-PET/CT system (Inviscan SAS, France). Tumor-bearing mice were injected with approximately 11.2-14.8 MBq of [^18F]3 (200 µL) via tail vein under anaesthetization by isoflurane. Static PET images were obtained at designated time points and were reconstructed with a 3D-OSEM algorithm using a Monte-Carlo based accurate detector model. A 170 sec-CT acquisition was conducted with 50 kV, 1 mA X-ray output for attenuation correction and anatomical orientation. ROIs (regions of interest) were drawn on lung, kidney, liver and tumor by Osirix software. SUV (standardized uptake value) of the ROIs was directly obtained from Osirix for each subject according to this formula: SUV = Voxal value (Bq/mL) * Body weight (kg)/(Decay corrected Dose (Bq) * 1000 (g/kg))."}, "[3]": {"experiment": "In vitro stability in PBS saline, 20% EtOH solution and rat serum (radio-HPLC)", "format": "physicochemical", "details": "4 h at 37°C", "experimental": "The in vitro stability of [^18F]3 was performed in PBS saline, 20% EtOH solution, and rat serum. In general, a solution of [^18F]3 (50 µL, approximately 20 KBq) was added to the PBS saline (2 mL), 20% EtOH solution (2 mL), and rat serum (2 mL), and these solutions were suspended in a water bath under 37°C for […]. Samples from PBS saline and 20% EtOH solution were loaded into the analytical radio-HPLC for the detection of RCP at designated time points (0, 1, 2, and 4 h), with the same condition described previously. The samples from the rat serum were added the same volume of acetonitrile to deposit the plasma protein, and the supernatant obtained by centrifugation (×12,000 r/min, 5 min) was analyzed at corresponding time points."}, "U87MG cells": {"test_system": "U87MG cells", "experiment": "Cellular uptake of [^18F]3 in U87MG cells", "format": "cell-based", "details": "U87 cells", "experimental": "as §1"}, "U87MG xenograft tumors": {"test_system": "U87MG xenograft tumors", "experiment": "Micro-PET/CT imaging, U87MG xenograft tumors", "format": "in vivo, BALB/c nude mice", "details": "U87MG xenografted tumors, within 90 min", "experimental": "as §2, with “ROIs (regions of interest) were drawn on the lung, kidney, liver, and tumor by OsiriX software. SUV (standardized uptake value) of the ROIs was directly obtained from OsiriX for each subject according to this formula: SUV = Voxal value (Bq/mL) * Body weight (kg)/(Decay corrected Dose (Bq) * 1,000 (g/kg)).” left out\nBALB/c nude mice used in this study were obtained from the Animal Center of Sichuan university. […] The tumor volume was monitored every day and the tumor-bearing mice were ready for imaging once the tumor volume reach 0.5 mm^3 (tumor volume can be calculated by this equation: Volume = 0.5 * long tail * short tail *short tail). […]"}, "[4]": {"experiment": "Micro-PET/CT imaging, organ SUV in tumor-bearing nude mice", "format": "in vivo, BALB/c nude mice", "experimental": "as §2, §3"}, "[5]": {"details": "1 h, pre-treatment with compound 3, 10 µM"}, "[6]": {"details": "A549-FAPI tumors, pre-injection of compound 3, 2 mg/kg"}},
  "data": [
    {"smiles": "N#C[C@@H]1CC(F)(F)CN1C(=O)CNC(=O)c1ccnc2ccc([18F])cc12", "note": "[[^18F]3]", "values": [
      {"measurement": "Cellular uptake ratio, blocking group", "setting": "[1]; [5]", "value": "0.56% ± 0.03%"},
      {"measurement": "Cellular uptake ratio", "setting": "[1]; 1 h incubation, vehicle group", "value": "1.07% ± 0.01%"},
      {"measurement": "Tumor-to-muscle (T/M) ratio", "setting": "[2]; A549-FAPI tumors, 90 min p.i.", "value": 4.34},
      {"measurement": "Tumor SUV, blocking group", "setting": "[2]; [6]", "value": "lower than 0.2"},
      {"measurement": "Tumor-to-muscle (T/M) ratio, blocking group", "setting": "[2]; [6]", "value": "less than 2.0"},
      {"measurement": "Tumor SUV", "setting": "[2]; A549-FAPI xenografted tumors, within 90 min", "value": "greater than 0.4"},
      {"measurement": "intact [^18F]3", "setting": "[3]", "value": "over 90%"},
      {"measurement": "Cellular uptake ratio, blocking group", "setting": "U87MG cells; [5]", "value": "1.19% ± 0.02%"},
      {"measurement": "Cellular uptake ratio", "setting": "U87MG cells; 1 h incubation, vehicle group", "value": "1.50% ± 0.13%"},
      {"measurement": "Tumor SUV", "setting": "U87MG xenograft tumors", "value": "greater than 0.22"},
      {"measurement": "SUV in the liver", "setting": "[4]; 15 min p.i.", "value": "about 5.0"},
      {"measurement": "SUV in the kidney", "setting": "[4]; 90 min p.i.", "value": 3.0},
      {"measurement": "SUV in the bladder", "setting": "[4]; end of the scan", "value": "greater than 8.0"},
      {"measurement": "SUV in the liver", "setting": "[4]; end of the scan (90 min)", "value": 2.0},
      {"measurement": "SUV in the kidney", "setting": "[4]; initial", "value": "about 5.0"},
      {"measurement": "SUV in the brain", "setting": "[4]; mouse, in vivo", "value": "less than 0.3"}
    ]}
  ]
}
